{
  "source": "patent US6310037A",
  "about": "“Method of controlling protozoan infections using syringomycin-family lipodepsipeptides” (Utah State University, priority 1999, dated 2001)",
  "key": {"L. donovani": {"system": "L. donovani", "format": "cell-based", "settings": "pH 5.5, 72 hours", "description": "L. donovani parasites (WHO designation: MHOM/SD/62/1S-CL2D) used in this study were originally donated by the National Institutes of Health. These parasites were maintained as axenic amastigote-like forms by serial passage at 37°C. in a humid atmosphere containing 5% CO2 using a slightly modified version of the medium described by Joshi et al., Cloning and characterization of differentially expressed genes from in vitro-grown `amastigotes` of Leishmania donovani. Molecular and Biochemical Parasitology, 1993. 58: p. 345-354, the contents of which are incorporated herein by this reference.\nL. donovani amastigote-like forms were seeded at 10^6 cells/ml in 96-well flat-bottom plates (Costar) in the amastigote medium described above in the presence or absence of drugs. The final volume in each well was 60 μl. Wells containing control parasites included 1% DMSO, the maximum concentration of the vehicle found in drug-containing samples. Plates were incubated at 37° C. in a humid 5% CO2 atmosphere for 72 hours, then 12 μl of the aqueous CellTiter solution (Promega) was added to each well according to the instructions of the manufacturer. Plates were returned to the 37° C. incubator for a further 4-5 hours, then the absorbance of each well was measured at 490 nm using a SpectraMax Plus plate reader (Molecular Devices, Sunnyvale, Calif.). IC50 values for each of the drugs (the concentration of drug that inhibited the growth of parasites by 50% compared to controls) was determined with the aid of the program SoftMax Pro (Molecular Devices). The log dose response equation y=((a-d)/(1+(x/c)^b))+d was used to calculate IC50 values, where x=drug concentration, y=absorbance at 490 nm, a=upper asymptote, b=slope, c=IC50, and d=lower asymptote.\nActivity of Syr-E against L. donovani was determined using a cell-free amastigote culture technique that included the uptake of a vital dye (Cell Titer solution, Promega Corporation) as a measure of parasite viability at 72 hours post inoculation. OD values for serial dilutions of Syr-E were transformed as described for the malaria screen (Example VII) to determine IC50 values against Leishmania. The amastigote assay was performed at a pH of 5.5, which is favorable for Syr-E activity."}, "BFTE cells": {"system": "BFTE cells", "assay": "Toxic effect of Syr-E on BFTE host cells at pH 6.3 (neutral red assay, visual observation)", "format": "cell-based, bovine", "description": "Primary BFTE cell cultures were prepared from bovine fallopian tubes (FT). Fat was trimmed from the serosal surfaces, mucus was gently squeezed from the lumens, and FT were decontaminated by being submerged in 70% ethanol for 30 seconds. The FT were then transferred to sterile culture petri dishes containing HBSS and washed twice. The BFTE cells were harvested either by flushing the FT with HBSS, using a 10 ml syringe equipped with a mouse feeding needle, or by opening the FT lengthwise with scissors and scraping the mucosal surfaces. The BFTE cells were subsequently washed in HBSS by centrifugation at 200×g (force of gravity) for 10 minutes, planted in 75-cm^2 flasks containing RPMI 1640 and cultured in a 5% CO2 incubator at 37° C. for 72 to 120 hours. When the cell lines reached confluency, they were trypsinized, split, and planted onto cover slips positioned on the bottoms of individual wells in 24-well tissue culture plates. When cells reached 80% confluency, they were inoculated with either 10^5 oocysts or 4×10^5 sporozoites per well. Plates were then maintained at 37° C. in a candle jar environment (17% O2, 3% CO2, 80% N2). Growth medium was changed in each well every 72 hours. In wells inoculated with oocysts, the medium was first changed at 24 hours to remove any unexcysted oocysts.\nNeutral red assay was used to measure viewable cell damage, such as obvious plaque forming and cell peeling. Briefly, 0.1 ml of neutral red was directly added to supernatant in each well of 96-well plates at the termination of the culture. Following 1-hr incubation at 37°C., the supernatant mixture from each well was discarded and cells at the bottom of the wells were rinsed twice with PBS. A volume of 0.2 ml/well extract buffer was added and the content in each well was well mixed prior to 30 min. incubation in the dark at 25°C. cytotoxicity was quantitatively read using a Microplate Autoreader (Bio-Tek Instruments, Inc., Winooski, Vt.) with a wavelength set at 540 nm.\nSamples were collected on day 2 post inoculation. Each group consisted of both uninfected (empty bar) and C. parvum infected (solid bar) subgroups. In group 1, the medium pH was adjusted to 7.2, no Syr-E was used, and the cytotoxicity of the uninfected subgroup set to zero percent. Medium pH in groups 2-8 was adjusted to 6.3 and groups 3-8 received Syr-E treatments at 1, 2, 4, 8, 16, and 32 ,g/ml, respectively. Data are presented as the means +/- standard error of the mean. The cytotoxic effect increased from approximately 40% to 60% as Syr-E concentrations were elevated from 1 to 16 μg/ml, presenting a dose-dependent response. […] BFTE cells were 98% destroyed when Syr-E concentration reached 32 μg/ml at pH 6.3."}},
  "note": "Read-outs that look alike come from different tables or passages of the source. Where a SMILES comes first, the peptide text is derived from it. Bridges are numbered along the chain shown (N, C = ends). [ ]: non-standard residue; d: D form. The star is where a group is joined. Asp(3S-OH) = N[C@H](C(=O)O)[C@H](O)C(=O)O; Thr(4-Cl) = N[C@H](C(=O)O)[C@H](O)CCl; X1 = CCCCCCCCC[C@@H](O)CC(=O)*; dDab = NCC[C@@H](N)C(=O)O; Dab = NCC[C@H](N)C(=O)O; Dhb = C/C=C(\\N)C(=O)O",
  "data": [
    {"compound": "C/C=C1\\NC(=O)[C@H](Cc2ccccc2)NC(=O)[C@H](CCCNC(=N)N)NC(=O)[C@H](CCN)NC(=O)[C@@H](CCN)NC(=O)[C@@H](CO)NC(=O)[C@@H](NC(=O)C[C@H](O)CCCCCCCCC)COC(=O)[C@H]([C@H](O)CCl)NC(=O)[C@H]([C@H](O)C(=O)O)NC1=O", "note": "[Syr-E, Syringomycin-E] (X1-S[dS][dDab][Dab]RF[Dhb][Asp(3S-OH)][Thr(4-Cl)]; ester 1-C)", "values": [
      {"measurement": "OD Values", "setting": "L. donovani; Sample 1, Concentration 4.00000 (unit not given)", "result": 0.099},
      {"measurement": "OD Values", "setting": "L. donovani; Sample 2, Concentration 2.00000 (unit not given)", "result": 0.097},
      {"measurement": "OD Values", "setting": "L. donovani; Sample 3, Concentration 1.00000 (unit not given)", "result": 0.090},
      {"measurement": "OD Values", "setting": "L. donovani; Sample 4, Concentration 0.50000 (unit not given)", "result": 0.089},
      {"measurement": "OD Values", "setting": "L. donovani; Sample 5, Concentration 0.25000 (unit not given)", "result": 0.090},
      {"measurement": "OD Values", "setting": "L. donovani; Sample 6, Concentration 0.12500 (unit not given)", "result": 0.102},
      {"measurement": "OD Values", "setting": "L. donovani; Sample 7, Concentration 0.06250 (unit not given)", "result": 0.678},
      {"measurement": "OD Values", "setting": "L. donovani; Sample 8, Concentration 0.03125 (unit not given)", "result": 0.664},
      {"measurement": "OD Values", "setting": "L. donovani; Sample 9, Concentration 0.01563 (unit not given)", "result": 0.709},
      {"measurement": "OD Values", "setting": "L. donovani; Sample 10, Concentration 0.00781 (unit not given)", "result": 0.652},
      {"measurement": "OD Values", "setting": "L. donovani; Sample 11, Concentration 0.00391 (unit not given)", "result": 0.672},
      {"measurement": "IC50", "setting": "L. donovani; amastigote assay", "result": 0.10115, "unit": "µg/mL"},
      {"measurement": "cytotoxic effect (neutral red assay)", "setting": "BFTE cells; Syr-E 1 μg/ml, BFTE cells, pH 6.3, day 2 post inoculation", "result": "approximately 40%"},
      {"measurement": "cytotoxic effect (neutral red assay)", "setting": "BFTE cells; Syr-E 16 μg/ml, BFTE cells, pH 6.3, day 2 post inoculation", "result": "~60", "unit": "%"},
      {"measurement": "BFTE cells destroyed (neutral red assay)", "setting": "BFTE cells; Syr-E 32 μg/ml, pH 6.3, day 2 post inoculation", "result": 98, "unit": "%"},
      {"measurement": "visual cell damage", "setting": "BFTE cells; Syr-E 0.5-9.0 μg/ml, BFTE cells, pH 6.3", "result": "Visual cell plaques were observed"}
    ]}
  ]
}
